Reference: patent publication US20250134889A1, “TARGETING IRE1 KINASE AND FMRP FOR PROPHYLAXIS, MANAGEMENT AND TREATMENT OF ATHEROSCLEROSIS” (CEDARS-SINAI MEDICAL CENTER, priority 2022, published 2025)

Experiments:
[1] = test system: BMDM; assay: In vitro efferocytosis; format: cell-based, mouse
From the text: FIGS. 3A-3G depict that FMRP-deficiency increases efferocytosis in vivo. (For all images scale bar=50 μm; Red: Macrophages, Green: AC/AC-1, Violet: AC-2. Data are mean±SEM. Unpaired t-test with Welch's correction. * P≤0.05, ** P≤0.01, *** P≤0.001.) • 3A-3E. In vitro and in vivo efferocytosis experiments, where percentage of macrophages F4/80^+ (red) that ingested apoptotic cells (AC) labeled with carboxyfluorescein succinimidyl ester (CFSE)^+ (green) were reported as % efferocytosis. • 3A. BMDMs were transfected with Fmr1- or control-siRNA and incubated CFSE-labeled AC for the indicated hours (n=4). • 3B. Fmr1^+/+ and Fmr1^−/− BMDMs were treated with PA (500 μM) for 6 hours and then incubated with CFSE-labeled ACs for 4 hours (n=4). • 3C. Fmr1^+/+ and Fmr1^−/− mice were fed WD (16 weeks) and injected intraperitoneally with CFSE-labeled AC (1.5 hours), followed by PM elicitation (n=4-5). • 3D. BMDM were pre-treated either with vehicle (DMSO) or AMG-18 (5 μM) for 1 hour then incubated with CFSE-labeled ACs for 4 hours (n=4). • 3E. […] In vitro continuous efferocytosis experiments, where macrophages were stained for F4/80^+ (red), AC were labeled with CFSE (AC-1; green) or Violet (AC2; violet). % continuous efferocytosis was determined by the ratio of F4/80^+, CFSE^+ and Violet^+ (triple positive) cells to total F4/80^+/+ and CFSE^+ (double positive) cells. • 3F. […]

[2] = test system: BMDMs; assay: Apoptosis detection by flow cytometry (PI); format: cell-based, mouse; settings: AMG-18 10 μM 1 hour pre-treatment, PA 12 hours
From the text: FIGS. 5K-5T depict: (Data are mean #SEM; Mann Whitney U test. * P≤0.05, ** P≤0.01, *** P≤0.001) • 5K. The ratio of mouse weight at the beginning of the experiment over the weight at the end of the experiment in FIG. 5A (n=12-13); and plasma measurements for glucose (n=12-13), cholesterol (n=12-13) and lipoproteins (n=4), respectively, from mice in FIG. 5A. • 5L. Abundance of B cells, T cells and monocytes in the peripheral blood as % of total CD45+ cells from the Fmr1^+/+ and Fmr1^−/− mice in FIG. 5A (n=12-13) . • 5M. Macrophage area was calculated from MOMA-2 (red)-stained aortic root sections as % of MOMA2^+ stained area to total plaque area (n=8; Scale bar=100 μm). • 5N. Apoptosis was calculated from the number of TUNEL^+ cells (green) in the MOMA-2-stained (red) plaque area (n=8; Scale bar=100 μm). • 5O. Fmr1^+/+ and Fmr1^−/− BMDMs or AMG-18 pre-treated cells (10 μM, 1 hour) were treated with PA ([…]) treatment for 12 hours and then stained with Propidium iodide (PI) (n=5). • 5P. % Smooth muscle actin (α-SMA) was calculated from aortic root sections stained with a-SMA (green) as % α-SMA^+ area to the total plaque area (n=8, Scale bar 100 μm). • 5Q. % collagen area was calculated from Masson's Trichrome staining as the percentage of collagen (blue) area in total plaque area (n=8; Scale bar=100 μm). • 5R. […]

With `Cc1ccc2c(NS(=O)(=O)c3ccccc3Cl)cccc2c1Oc1ncccc1-c1ccnc(N[C@H]2CCCNC2)n1` [AMG-18] the “continued efferocytosis of ACs” value ([1]; AMG-18 5 μM 1 hour, AC-1 2 hours then AC-2 2 hours) was “enhanced”, the “efferocytosis of ACs” value ([1]; CFSE-labeled ACs, AMG-18 5 μM 1 hour then ACs 4 hours, siRNA transfected BMDM) was “increased” and the “apoptosis (PI staining)” value [2] was “no significant change”.
